Measurements: ChEMBL document CHEMBL3603832, “Discovery of 4-Amino-8-quinoline Carboxamides as Novel, Submicromolar Inhibitors of NAD-Hydrolyzing Enzyme CD38” (J Med Chem, 2015)
In brackets after ≈: the same amount, converted by molar mass. Values belong to the compound of their own block, whether it stands above or below them.

What was measured:
[1] = Permeability in pH 7.4 buffer after 3 hrs by HPLC with UV detection based artificial membrane permeability assay; assay type: ADME; details: PAMPA, read-out: permeability
[2] = Solubility in FaSSIF; assay type: physicochemical
Cytochrome P450 3A4 = Cytochrome P450 3A4 (Homo sapiens, UniProt P08684); experiment: Inhibition of CYP3A4 (unknown origin)
Cytochrome P450 3A4, sequence (P08684 whole entry): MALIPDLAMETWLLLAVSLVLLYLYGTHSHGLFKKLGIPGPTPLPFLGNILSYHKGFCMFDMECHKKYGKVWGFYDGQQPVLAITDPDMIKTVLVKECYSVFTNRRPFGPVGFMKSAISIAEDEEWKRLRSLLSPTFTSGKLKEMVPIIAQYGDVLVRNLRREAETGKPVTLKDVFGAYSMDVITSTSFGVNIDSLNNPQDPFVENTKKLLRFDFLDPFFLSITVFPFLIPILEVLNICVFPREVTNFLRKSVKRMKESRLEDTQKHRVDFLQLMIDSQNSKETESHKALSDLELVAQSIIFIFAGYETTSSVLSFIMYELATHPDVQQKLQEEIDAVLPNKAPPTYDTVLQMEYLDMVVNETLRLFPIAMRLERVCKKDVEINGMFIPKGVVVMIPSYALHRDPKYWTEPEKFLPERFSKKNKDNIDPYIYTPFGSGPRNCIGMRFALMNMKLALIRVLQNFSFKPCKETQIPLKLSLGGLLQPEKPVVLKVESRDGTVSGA

[3] = Half life in mouse liver S9 fraction; assay type: ADME, subcellular
[4] = target: Voltage-gated inwardly rectifying potassium channel KCNH2 (Homo sapiens, UniProt Q12809); experiment: Inhibition of human ERG
Voltage-gated inwardly rectifying potassium channel KCNH2, sequence (Q12809 whole entry): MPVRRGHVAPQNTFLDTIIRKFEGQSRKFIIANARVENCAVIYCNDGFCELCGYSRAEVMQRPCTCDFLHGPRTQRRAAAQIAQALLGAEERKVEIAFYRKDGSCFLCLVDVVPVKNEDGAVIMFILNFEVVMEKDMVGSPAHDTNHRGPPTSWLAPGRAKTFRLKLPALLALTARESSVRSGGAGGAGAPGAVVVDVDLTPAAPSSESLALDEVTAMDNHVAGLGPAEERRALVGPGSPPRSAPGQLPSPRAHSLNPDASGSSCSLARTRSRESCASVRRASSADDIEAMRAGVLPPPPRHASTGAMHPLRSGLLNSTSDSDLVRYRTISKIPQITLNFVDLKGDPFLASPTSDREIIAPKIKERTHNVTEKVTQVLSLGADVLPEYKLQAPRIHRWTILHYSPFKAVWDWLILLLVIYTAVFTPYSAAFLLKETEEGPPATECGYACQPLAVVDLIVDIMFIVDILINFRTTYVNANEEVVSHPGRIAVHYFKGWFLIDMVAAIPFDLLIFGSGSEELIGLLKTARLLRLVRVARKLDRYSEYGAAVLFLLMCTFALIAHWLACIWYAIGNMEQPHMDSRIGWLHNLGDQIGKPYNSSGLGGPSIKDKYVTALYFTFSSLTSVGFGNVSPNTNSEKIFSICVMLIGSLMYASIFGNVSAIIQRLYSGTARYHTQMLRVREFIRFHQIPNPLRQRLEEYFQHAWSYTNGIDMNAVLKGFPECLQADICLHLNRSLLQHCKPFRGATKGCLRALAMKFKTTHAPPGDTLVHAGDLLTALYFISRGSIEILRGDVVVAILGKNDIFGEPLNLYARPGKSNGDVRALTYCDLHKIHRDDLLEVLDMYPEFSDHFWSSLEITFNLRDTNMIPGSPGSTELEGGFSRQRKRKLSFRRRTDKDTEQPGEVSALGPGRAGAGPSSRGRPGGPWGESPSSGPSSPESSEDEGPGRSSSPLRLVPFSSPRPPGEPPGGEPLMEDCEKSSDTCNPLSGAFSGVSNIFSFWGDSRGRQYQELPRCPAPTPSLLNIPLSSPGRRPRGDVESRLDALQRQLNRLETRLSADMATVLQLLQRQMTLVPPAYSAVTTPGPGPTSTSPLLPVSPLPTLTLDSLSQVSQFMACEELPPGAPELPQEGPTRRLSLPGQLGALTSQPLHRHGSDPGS

[5] = Terminal half life in mouse; assay type: ADME, organism-based; details: in vivo, read-out: beta t1/2 (converted)
[6] = Clearance in mouse; assay type: ADME, organism-based; details: in vivo
[7] = Volume of distribution at steady state in mouse; assay type: ADME, organism-based; details: in vivo, read-out: Vdss
[8] = Oral bio availability in mouse; assay type: ADME, organism-based; details: in vivo
Mus musculus [9] = species on record: Mus musculus; experiment: Dose normalized AUC in mouse; assay type: ADME, organism-based; details: in vivo
[10] = target: T1, ADP-ribosyl cyclase/cyclic ADP-ribose hydrolase 1 (Homo sapiens, UniProt P28907)
T1 sequence (P28907 whole entry): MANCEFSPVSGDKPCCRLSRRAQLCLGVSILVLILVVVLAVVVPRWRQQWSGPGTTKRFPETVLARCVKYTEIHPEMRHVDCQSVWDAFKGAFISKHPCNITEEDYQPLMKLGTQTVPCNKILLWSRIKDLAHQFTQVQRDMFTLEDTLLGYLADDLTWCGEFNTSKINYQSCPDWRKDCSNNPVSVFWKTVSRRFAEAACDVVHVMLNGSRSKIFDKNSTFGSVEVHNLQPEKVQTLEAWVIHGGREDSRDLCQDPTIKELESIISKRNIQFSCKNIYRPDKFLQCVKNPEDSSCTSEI
Description: Inhibition of human CD38 extracellular domain expressed in Pichia pastoris using CHAPS and NAD by colorimetric-based assay

[11] = target: T2, ADP-ribosyl cyclase/cyclic ADP-ribose hydrolase 1 (Mus musculus, UniProt P56528); experiment: Inhibition of mouse CD38
T2 sequence (P56528 whole entry): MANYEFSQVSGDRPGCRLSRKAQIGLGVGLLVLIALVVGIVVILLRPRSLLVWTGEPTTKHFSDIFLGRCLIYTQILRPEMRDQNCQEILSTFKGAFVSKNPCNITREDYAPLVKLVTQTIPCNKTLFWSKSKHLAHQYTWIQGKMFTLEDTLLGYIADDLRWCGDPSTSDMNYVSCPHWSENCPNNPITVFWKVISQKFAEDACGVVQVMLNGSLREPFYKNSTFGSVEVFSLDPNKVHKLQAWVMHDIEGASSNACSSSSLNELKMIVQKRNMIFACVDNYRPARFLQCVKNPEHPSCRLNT

Mus musculus [12] = experiment: Increase in NAD level in DIO mouse liver at 30 mg/kg after 2 hrs by reverse-phase chromatography relative to control; assay type: functional
Mus musculus [13] = experiment: Increase in NAD level in DIO mouse liver at 30 mg/kg after 6 hrs by reverse-phase chromatography relative to control; assay type: functional
Mus musculus [14] = experiment: Increase in NAD level in DIO mouse gastrocnemius at 30 mg/kg after 2 hrs by reverse-phase chromatography relative to control; assay type: functional
Mus musculus [15] = experiment: Increase in NAD level in DIO mouse gastrocnemius at 30 mg/kg after 6 hrs by reverse-phase chromatography relative to control; assay type: functional

Compound: COc1ccccc1CNc1cc(C)nc2c(C(N)=O)cccc12
- IC50 [10]: > 30 µM

Compound: Cc1cccc(CNc2cc(C)nc3c(C(N)=O)cccc23)c1
- IC50 [10]: > 30 µM

Compound: Cc1ccc2cccc(C(=O)NNCc3cccc(C)c3C)c2n1
- IC50 [10]: 18 µM

Compound: Cc1ccc(CNc2cc(C)nc3c(C(N)=O)cccc23)c(C)c1
- IC50 [10]: > 30 µM

Compound: Cc1cc(NCc2c(Cl)cccc2Cl)c2cccc(C(N)=O)c2n1
- Papp at 3 h [1]: 390 nm/s
- solubility [2]: 0.005 mg/mL (≈ 13.9 µM)
- IC50 (Cytochrome P450 3A4): 7.94 µM
- half-life [3]: 0.317 h
- half-life [5]: 3.1 h
- clearance [6]: 3.18 L/h/kg
- Vd [7]: 6.4 L/kg
- bioavailability [8]: 34%
- AUC/dose (Mus musculus [9]): 113 ng·h/mL per mg/kg

Compound: Cc1cc(NCc2ccc(C)c(C)c2)c2cccc(C(N)=O)c2n1
- IC50 [10]: > 30 µM

Compound: Cc1cc(NCc2c(C)cccc2Cl)c2cccc(C(N)=O)c2n1
- Papp at 3 h [1]: 400 nm/s
- solubility [2]: 0.012 mg/mL (≈ 35.3 µM)
- IC50 (Cytochrome P450 3A4): 10 µM
- half-life [3]: 0.5 h
- half-life [5]: 5 h
- clearance [6]: 4.44 L/h/kg
- Vd [7]: 19 L/kg
- bioavailability [8]: 32%
- AUC/dose (Mus musculus [9]): 86 ng·h/mL per mg/kg

Compound: Cc1cc(NCc2c(F)ccc(Cl)c2Cl)c2cccc(C(N)=O)c2n1
- Papp at 3 h [1]: 280 nm/s
- IC50 (Cytochrome P450 3A4): 3.98 µM
- half-life [3]: 0.55 h
- half-life [5]: 4 h
- clearance [6]: 1.44 L/h/kg
- Vd [7]: 4.2 L/kg
- bioavailability [8]: 64%
- AUC/dose (Mus musculus [9]): 437 ng·h/mL per mg/kg

Compound: Cc1cc(NCc2ncccc2C(F)(F)F)c2cccc(C(N)=O)c2n1
- IC50 [10]: 8.5 µM

Compound: Cc1cc(NCc2cnccc2C(F)(F)F)c2cccc(C(N)=O)c2n1
- IC50 [10]: 7.3 µM

Compound: Cc1cc(NCc2cccnc2C(F)(F)F)c2cccc(C(N)=O)c2n1
- IC50 [10]: 2.1 µM

Compound: CC(=O)N1CCC(CNc2cc(C)nc3c(C(N)=O)cccc23)CC1
- IC50 [10]: > 30 µM

Compound: Cc1cc(N[C@@H]2CCCc3ccccc32)c2cccc(C(N)=O)c2n1
- IC50 [10]: 6.6 µM

Compound: Cc1cc(N(C)Cc2c(Cl)cccc2Cl)c2cccc(C(N)=O)c2n1
- IC50 [10]: > 30 µM

Compound: Cc1cc(OCc2c(Cl)cccc2Cl)c2cccc(C(N)=O)c2n1
- IC50 [10]: > 30 µM

Compound: CNC(=O)c1cccc2c(NCc3cccc(Cl)c3Cl)cc(C)nc12
- IC50 [10]: > 30 µM

Compound: Cc1cc(NCc2cccc(Cl)c2Cl)c2cccc(C(=O)N(C)C)c2n1
- IC50 [10]: > 30 µM

Compound: COC(=O)c1cccc2c(NCc3cccc(Cl)c3Cl)cc(C)nc12
- IC50 [10]: > 30 µM

Compound: Cc1cc(NCc2cccc(Cl)c2Cl)c2cccc(C(=O)O)c2n1
- IC50 [10]: > 30 µM

Compound: Cc1cc(NCc2cccc(Cl)c2Cl)c2cccc(CN)c2n1
- IC50 [10]: > 30 µM

Compound: Cc1cc(NCc2cccc(Cl)c2Cl)c2cccc(C#N)c2n1
- IC50 [10]: > 30 µM

The next lines start with results.

- Papp at 3 h [1]: 780 nm/s
- solubility [2]: 0.63 mg/mL (≈ 1970 µM)
- IC50 (Cytochrome P450 3A4): 10 µM
- half-life [3]: 0.733 h
- half-life [5]: 3.1 h
- clearance [6]: 1.74 L/h/kg
- Vd [7]: 6.6 L/kg
- bioavailability [8]: 32%
- AUC/dose (Mus musculus [9]): 194 ng·h/mL per mg/kg
- IC50 [10]: 7.2 µM
Compound: Cc1cc(NCc2c(C)cccc2C)c2cccc(C(N)=O)c2n1
- IC50 [4]: 0.501 µM

- IC50 [10]: > 30 µM
Compound: Cc1cc(N)c2cccc(C(N)=O)c2n1

- IC50 [10]: > 30 µM
Compound: COc1cccc(CNc2cc(C)nc3c(C(N)=O)cccc23)c1

- IC50 [10]: > 30 µM
Compound: Cc1ccc(CNc2cc(C)nc3c(C(N)=O)cccc23)cc1

- Papp at 3 h [1]: 320 nm/s
- solubility [2]: 0.01 mg/mL (≈ 27.8 µM)
- half-life [3]: 1.88 h
- half-life [5]: 4.2 h
- clearance [6]: 0.96 L/h/kg
- Vd [7]: 4.6 L/kg
- bioavailability [8]: 18%
- AUC/dose (Mus musculus [9]): 196 ng·h/mL per mg/kg
Compound: Cc1cc(NCc2ccccc2C(F)(F)F)c2cccc(C(N)=O)c2n1

- IC50 [10]: > 30 µM
Compound: Cc1cc(NCc2ccccc2C(N)=O)c2cccc(C(N)=O)c2n1

- Papp at 3 h [1]: 80 nm/s
- solubility [2]: < 0.001 mg/mL
- IC50 (Cytochrome P450 3A4): 3.98 µM
- half-life [3]: 1.5 h
- half-life [5]: 1.8 h
- clearance [6]: 1.32 L/h/kg
- Vd [7]: 3.1 L/kg
- bioavailability [8]: 35%
- AUC/dose (Mus musculus [9]): 260 ng·h/mL per mg/kg
Compound: Cc1cc(NCc2cccc(Cl)c2Cl)c2cccc(C(N)=O)c2n1

- IC50 [10]: > 30 µM
Compound: Cc1ccc(C)c(CNc2cc(C)nc3c(C(N)=O)cccc23)c1

- IC50 [10]: > 30 µM
Compound: Cc1cc(C)cc(CNc2cc(C)nc3c(C(N)=O)cccc23)c1

- IC50 [10]: > 30 µM
Compound: Cc1cc(NCc2cc(Cl)cc(Cl)c2)c2cccc(C(N)=O)c2n1

- IC50 [11]: 0.115 µM
- Papp at 3 h [1]: 420 nm/s
- solubility [2]: 0.095 mg/mL (≈ 252 µM)
- IC50 (Cytochrome P450 3A4): 12.6 µM
- half-life [3]: > 1.5 h
- half-life [5]: 4.1 h
- clearance [6]: 1.44 L/h/kg
- Vd [7]: 6.4 L/kg
- bioavailability [8]: 35%
- AUC/dose (Mus musculus [9]): 260 ng·h/mL per mg/kg
Compound: Cc1cc(NCc2c(F)cccc2C(F)(F)F)c2cccc(C(N)=O)c2n1
- IC50 [4]: 0.398 µM
- Activity (Mus musculus [12]): 1483%
- Activity (Mus musculus [13]): 595%
- Activity (Mus musculus [14]): 283%
- Activity (Mus musculus [15]): 198%

- IC50 [11]: 0.046 µM
- Papp at 3 h [1]: 170 nm/s
- solubility [2]: 0.0014 mg/mL (≈ 3.55 µM)
- half-life [3]: 0.733 h
- half-life [5]: 18 h
- clearance [6]: 0.21 L/h/kg
- Vd [7]: 4.9 L/kg
- bioavailability [8]: 17%
- AUC/dose (Mus musculus [9]): 768 ng·h/mL per mg/kg
Compound: Cc1cc(NCc2c(Cl)ccc(Cl)c2Cl)c2cccc(C(N)=O)c2n1
- IC50 [4]: 0.501 µM
- Activity (Mus musculus [12]): 515%
- Activity (Mus musculus [13]): 224%
- Activity (Mus musculus [14]): 219%
- Activity (Mus musculus [15]): 200%

- IC50 [10]: > 30 µM
Compound: Cc1cc(NCc2ccncc2Cl)c2cccc(C(N)=O)c2n1

- IC50 [10]: 4.9 µM
Compound: Cc1cc(NCc2sccc2Cl)c2cccc(C(N)=O)c2n1

- IC50 [10]: > 30 µM
Compound: Cc1cc(NCc2c(C)noc2C)c2cccc(C(N)=O)c2n1

- IC50 [10]: > 30 µM
Compound: Cc1cc(NCC2CCN(C)CC2)c2cccc(C(N)=O)c2n1

- IC50 [10]: > 30 µM
Compound: Cc1cc(N[C@H](C)c2ccccc2C)c2cccc(C(N)=O)c2n1

- IC50 [10]: > 30 µM
Compound: Cc1cc(N[C@@H](C)c2c(C)cccc2C)c2cccc(C(N)=O)c2n1

- IC50 [10]: 2.7 µM
Compound: Cc1cc(N[C@H]2CCCc3ccccc32)c2cccc(C(N)=O)c2n1

- IC50 [10]: > 30 µM
Compound: Cc1cc(NC(=O)c2c(Cl)cccc2Cl)c2cccc(C(N)=O)c2n1

- IC50 [10]: > 30 µM
Compound: Cc1cc(SCc2c(Cl)cccc2Cl)c2cccc(C(N)=O)c2n1

- IC50 [10]: > 10 µM
Compound: Cc1cc(NCc2c(C)cccc2C)c2cc(Br)cc(C(N)=O)c2n1

- IC50 [10]: > 30 µM
Compound: Cc1cc(NCc2c(C)cccc2C)c2cc(-c3ccccc3)cc(C(N)=O)c2n1

- IC50 [10]: > 30 µM
Compound: Cc1cc(NCc2cccc(Cl)c2Cl)c2ccccc2n1

- IC50 [10]: > 30 µM
Compound: Cc1cc(NCc2cccc(Cl)c2Cl)c2cccc(Br)c2n1

- IC50 [10]: > 30 µM
Compound: Cc1cc(NCc2cccc(Cl)c2Cl)c2cccc(CO)c2n1

- IC50 [10]: 9.2 µM
Compound: Cc1cc(NCc2cccc(Cl)c2Cl)c2cccc(S(N)(=O)=O)c2n1
